The numbers were not newly measured in patent publication US5330766A, “Sustained release pharmaceutical composition” (priority 1989, dated 1994), which cites them from elsewhere.

Counter-ions that a name gives are not always drawn. Like-named read-outs stand apart in the source and are kept apart here.

Test in data set [1]: not given
This is another data set of the same source.

On to `NCCCCCC(=O)O` [Aminocaproic acid], for which the pKA is, setting by setting: (first or only value given) 4.43; (second value) 10.73.
`CCCC(CCC)C(=O)O[C@H]1C[C@H]2CC[C@@H](C1)[N+]2(C)C` [Anisotropine methylbromide]: the “SOLUBILITY (AQUEOUS), in words” value in data set [1] is “soluble”.
For `CN1CCC(=C2c3ccccc3CCc3cccnc32)CC1` [Azatadine maleate], the “SOLUBILITY (AQUEOUS), in words” value in data set [1] is given as “very soluble”. The pKA (first or only value given) is listed as 9.3.
As to `C[C@@H](Cc1ccccc1)N(C)Cc1ccccc1` [Benzphetamine hydrochloride], the pKA (first or only value given) was 6.6.
Turning to `CCC(C)C1(CC)C(=O)NC(=O)NC1=O` (stereo not shown) [Butabarbital sodium], the “SOLUBILITY (AQUEOUS), in words” value in data set [1] was “freely soluble”. In addition, the pKA (first or only value given) was 7.9.
For the molecule `CN(C)CCOC(c1ccc(Cl)cc1)c1ccccn1` (stereo not shown) [Carbinoxamine maleate], the pKA (first or only value given) was 8.1.
With `O=C(O)c1ccccc1O` [Choline salicylate], the “SOLUBILITY (AQUEOUS), in words” value in data set [1] is “very soluble”.
Take `C[N+]12CCC(CC1)C(OC(=O)C(O)(c1ccccc1)c1ccccc1)C2` (stereo not shown) [Clidinium bromide]: in data set [1], the “SOLUBILITY (AQUEOUS), in words” value was “soluble”.
In the case of `CCCCCCCCCCCCCCCC(=O)OC1C(SC)OC(C(NC(=O)C2CC(CCC)CN2C)C(C)Cl)C(O)C1O` (stereo not shown) [Clindamycin Palmitate HCl], the “SOLUBILITY (AQUEOUS), in words” value in data set [1] was “freely soluble”.
Regarding `Cc1onc(-c2ccccc2Cl)c1C(=O)N[C@@H]1C(=O)N2[C@@H]1SC(C)(C)[C@@H]2C(=O)O` [Cloxacillin sodium], under “first or only value given”, the pKA was 2.7.
In the case of `COc1cc2c(c(OC)c1OC)-c1ccc(OC)c(=O)cc1[C@@H](NC(C)=O)CC2` [Colchicine], the pKA (first or only value given) was 1.7 and the pKA (second value) was 12.4.
Take `C[C@H](CN1CCOCC1)C(C(=O)N1CCCC1)(c1ccccc1)c1ccccc1` [Dextromoramide tartrate]: the pKA (first or only value given) is listed as 7.1.
With `CC(C)N(CCC(C(N)=O)(c1ccccc1)c1ccccn1)C(C)C` (stereo not shown) [Disopyramide phosphate], where the note is “first or only value given”, the pKA is 8.4.
As for `CCC1(C)CC(=O)NC1=O` (stereo not shown) [Ethosuximide], the pKA (first or only value given) is given as 9.0.
Regarding `CCNC(C)Cc1cccc(C(F)(F)F)c1` (stereo not shown) [Fenfluramine hydrochloride], the pKA (first or only value given) was 9.1.
On to `COc1ccc2c3c1O[C@H]1C(=O)CC[C@H]4[C@@H](C2)N(C)CC[C@]314.O=C(O)C(O)C(O)C(=O)O` [Hydrocodone bitartrate], for which the pKA (first or only value given) is 8.3.
Turning to `OCCOCCN1CCN(C(c2ccccc2)c2ccc(Cl)cc2)CC1` (stereo not shown) [Hydroxyzine hydrochloride], the pKA (first or only value given) is recorded as 2.6 and the pKA (second value) is 7.0.
`NNC(=O)c1ccncc1` [Isoniazid]: the pKA was 10.8. Moreover, for the setting “second value”, the pKA is 3.5.
Take `Nc1nc2c(c(=O)[nH]1)N(C=O)C(CNc1ccc(C(=O)N[C@@H](CCC(=O)O)C(=O)O)cc1)CN2` (stereo partly shown) [Leucovorin calcium]: the pKA is listed as 10.4. Further, the “SOLUBILITY (AQUEOUS), in words” value in data set [1] is reported as “very soluble”. Where the note is “first or only value given”, the pKA is given as 3.1. Besides, the pKA (second value) is 4.8.
For `CN1CCC(CN2c3ccccc3Sc3ccccc32)C1` (stereo not shown) [Methdilazine HCl], the pKA (first or only value given) is 7.5.
On to `COC(=O)C(c1ccccc1)C1CCCCN1` (stereo not shown) [Methylphenidate hydrochloride], for which the “SOLUBILITY (AQUEOUS), in words” value in data set [1] was “freely soluble”. Also, under “first or only value given”, the pKA was 8.8.
Take `CCC1(CC)C(=O)NCC(C)C1=O` (stereo not shown) [Methyprylon]: where the note is “first or only value given”, the pKA is 12.
As to `CN1CCCC1c1cccnc1` (stereo not shown) [Nicotine], the “SOLUBILITY (AQUEOUS), in words” value in data set [1] is “soluble”.
For the molecule `CO[C@@H]1[C@@H](OC(N)=O)[C@@H](O)[C@H](Oc2ccc3c(O)c(NC(=O)c4ccc(O)c(CC=C(C)C)c4)c(=O)oc3c2C)OC1(C)C` [Novobiocin Sodium], for the setting “second value”, the pKA is on record as 9.1.
Turning to `CCN(CC)CC#CCOC(=O)C(O)(c1ccccc1)C1CCCCC1` (stereo not shown) [Oxybutynin hydrochloride], the pKA (first or only value given) was 6.96.
Regarding `CN(C)C1C(=O)C(C(N)=O)=C(O)C2(O)C(=O)C3=C(O)c4c(O)cccc4C(C)(O)C3C(O)C12` (stereo not shown) [Oxytetracycline HCl], the pKA was 9.1. The pKA (first or only value given) is reported as 3.3. Moreover, under “second value”, the pKA is listed as 7.3.
For `COc1ccc(Cc2nccc3cc(OC)c(OC)cc23)cc1OC` [Papaverine hydrochloride], where the note is “first or only value given”, the pKA is reported as 6.4.
For `CC(C)(S)[C@@H](N)C(=O)O` [Penicillamine HCl], the pKA (first or only value given, HCl) is 8.0 and the pKA (second value) was 10.8.
In the case of `CC(C)(S)[C@@H](N)C(=O)O` [Penicillamine], under “first or only value given”, the pKA was 1.8.
On to `CCOC(=O)C1(c2ccccc2)CCN(C)CC1` [Pethidine hydrochloride], for which the “SOLUBILITY (AQUEOUS), in words” value in data set [1] is on record as “very soluble”.
As to `C[C@H]1[C@H](c2ccccc2)OCCN1C` [Phendimetrazine tartrate], in data set [1], the “SOLUBILITY (AQUEOUS), in words” value is recorded as “freely soluble”. In addition, under “first or only value given”, the pKA was 7.6.
For the molecule `CC1NCCOC1c1ccccc1` (stereo not shown) [Phenmetrazine hydrochloride], the pKA (first or only value given) is reported as 8.4.
As for `CC(COc1ccccc1)N(CCCl)Cc1ccccc1` (stereo not shown) [Phenoxybenzamine hydrochloride], for the setting “first or only value given”, the pKA was 4.4.
For the molecule `CC(N)C(O)c1ccccc1` (stereo not shown) [Phenylpropanolamine hydrochloride], where the note is “first or only value given”, the pKA is reported as 9.
For `O=C1NC(=O)C(c2ccccc2)(c2ccccc2)N1` [Phenytoin sodium], in data set [1], the “SOLUBILITY (AQUEOUS), in words” value is “soluble”.
As to `C[n+]1ccccc1/C=N/O` [Pralidoxime chloride], the pKA (first or only value given) was 8.
`CC(C)[N+](C)(CCOC(=O)C1c2ccccc2Oc2ccccc21)C(C)C` [Propantheline bromide]: the “SOLUBILITY (AQUEOUS), in words” value in data set [1] is “very soluble”. For the same molecule, the pKA (first or only value given) was 9.0.
Turning to `C=CCC1(C(C)CCC)C(=O)NC(=O)NC1=O` (stereo not shown) [Secobarbital sodium], the pKA (first or only value given) is 7.5.
For the molecule `CC(C)(C)NC[C@H](O)COc1nsnc1N1CCOCC1` [Timolol maleate], in data set [1], the “SOLUBILITY (AQUEOUS), in words” value is recorded as “freely soluble”. Moreover, where the note is “first or only value given”, the pKA was 9.
`COc1cc(C(=O)NCc2ccc(OCCN(C)C)cc2)cc(OC)c1OC` [Trimethobenzamide hydrochloride]: the pKA (first or only value given) was 8.3.
`CN(C)CCN(Cc1ccccc1)c1ccccn1` [Tripelennamine citrate]: the pKA (first or only value given) was 3.9 and the pKA (second value) was 9.0.
